Drawing on paper PMC11965064, “Identification and verification of methylenetetrahydrofolate dehydrogenase 1-like protein as the binding target of natural product pseudolaric acid A” (Natural Products and Bioprospecting, 2025), this text covers Kd for one compound.

One may read the Kd as the constant that tells how readily two partners part at equilibrium. Read a low Kd as tighter binding.

This assay addresses T1, methylenetetrahydrofolate dehydrogenase 1-like (MTHFD1L) (Homo sapiens, UniProt Q6UB35).
T1 construct: MTHFD1L (68–978 AA), recombinant from E. coli, MBP tag cleaved with thrombin
T1 sequence (Q6UB35 68-978): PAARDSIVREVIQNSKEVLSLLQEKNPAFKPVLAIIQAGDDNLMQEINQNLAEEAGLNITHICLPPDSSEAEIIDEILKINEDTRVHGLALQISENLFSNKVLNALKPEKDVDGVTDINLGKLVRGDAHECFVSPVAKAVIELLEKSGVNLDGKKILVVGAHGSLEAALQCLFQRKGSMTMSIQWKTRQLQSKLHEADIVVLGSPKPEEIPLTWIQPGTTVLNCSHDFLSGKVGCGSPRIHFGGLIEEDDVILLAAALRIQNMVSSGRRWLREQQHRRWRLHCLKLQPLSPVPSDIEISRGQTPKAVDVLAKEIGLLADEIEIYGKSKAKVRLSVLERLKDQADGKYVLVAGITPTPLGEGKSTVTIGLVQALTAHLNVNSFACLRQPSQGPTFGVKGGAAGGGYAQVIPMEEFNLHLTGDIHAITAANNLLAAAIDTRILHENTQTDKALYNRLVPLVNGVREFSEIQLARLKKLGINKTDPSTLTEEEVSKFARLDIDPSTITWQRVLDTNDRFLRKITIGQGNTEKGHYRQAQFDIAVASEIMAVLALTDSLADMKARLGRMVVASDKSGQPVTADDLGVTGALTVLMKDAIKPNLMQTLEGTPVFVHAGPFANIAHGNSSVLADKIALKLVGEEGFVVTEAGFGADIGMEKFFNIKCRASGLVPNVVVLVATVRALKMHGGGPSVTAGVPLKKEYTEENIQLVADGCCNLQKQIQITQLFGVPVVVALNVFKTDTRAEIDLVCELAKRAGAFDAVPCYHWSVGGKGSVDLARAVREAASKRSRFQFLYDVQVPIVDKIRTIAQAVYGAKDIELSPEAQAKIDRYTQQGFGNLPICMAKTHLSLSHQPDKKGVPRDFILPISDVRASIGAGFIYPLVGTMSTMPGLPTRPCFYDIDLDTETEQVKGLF
Briefly: SPR (Biacore T200, steady-state affinity); supported by NMR STD, DARTS and ABPP competition. Type of assay: binding.

As to `CC(=O)O[C@]12CCC(C)=CC[C@]13CC[C@H]2[C@@](C)(/C=C/C=C(\C)C(=O)O)OC3=O` [PAA, pseudolaric acid A], the Kd was around 4.05 µM.
